Literature values in patent US20200390726A1, “Compositions for Improved Neuroprotective Effects and Methods of Making Same” (Guardion Health Sciences, LLC, priority 2019, published 2020).

Test system: glaucoma patients
Conditions: literature, anthocyanins 50 mg daily, PEA 600 mg per day, Mirtogenol dose not given

CCCCCCCCCCCCCCCC(=O)NCCO [PEA, Palmitoylethanolamide]
effect on visual field (citicoline 500 to 1,000 mg daily): improvement in the visual field | effect on intraocular pressure (IOP) (forskolin 1% eye drops): lowering of IOP
